# According to patent publication US20230277669A1, “USES OF UROLITHINS” (Amazentis SA, priority 2022, published 2023):
# Legend:
# Pgam5^-/- CD8^+ T cells = test: In vitro stimulation of PGAM5-/- CD8+ cells in presence of UA; type: cell-based, PGAM5^-/- mice
# Method: (FIG. 5H) Immunofluorescence of PGAM5 (green) in CD3+ cells after in vitro stimulation with aCD3/aCD28 stimulation beads for six hours. Cells were stained with Mitotracker Red to display mitochondrial colocalisation in the DMSO control as opposed to cytosolic release in the UA sample (m, mitochondrial co-localization; c, cytoplasmic localization) Scale=5 um. (FIG. 5I) In vitro stimulation of PGAM5^-/- CD8+ cells: Percentage of TSCM after 48 h of stimulation with aCD3/aCD28 stimulation beads in the presence of UA. All data depicts mean ± SD, n=4 per group. Statistics shown here depict unpaired, two-sided t-test and Mann-Whitney test (I; (DMSO vs UA25; DMSO vs UA50). *p < 0.05; n.s. not significant. (FIG. 5J) Percentage of CD95+ er 48 h of stimulation with aCD3/aCD28 stimulation beads in the presence of UA. (FIG. 5K) CD95+er 48 h of stimulation with aCD3/aCD28 stimulation beads in the presence of UA.
# (FIG. 5L) UA induces PGC-1α expression in stimulated CD8+ cells. PGC-1α MFI at 48 h upon stimulation, as assessed by intracellular staining, is shown (n=3). One of two independent experiments are shown. Data are mean ± SD, statistical analysis was performed by two-sided t-test (p**<0.01). (FIG. 5M) Mitochondrial content of TIL CD8+ cells harvested from APTK-carrying mice, fed UA or control diet as depicted in FIG. 1J. Assessed by Mitotracker Red staining. Data are mean ± SD, *p < 0.05 by two-sided t-test. (FIG. 5N) Mitophagy and subsequent PGAM5 release drive PGC-1α upregulation. PGC-1α expression of CD8+ cells derived from Pink1^-/- KO mice upon 48 h stimulation in vitro in the presence of UA or DMSO control (n=4). Data are mean ± SD, statistical analysis was performed by two-sided t-test. Depicts one of two independent experiments. (FIG. 5O) Mitophagy and subsequent PGAM5 release drive PGC-1 α upregulation. PGC-1α expression of CD8+ cells derived from PGAM5^-^/- mice upon 48 h stimulation in vitro in the presence of UA or DMSO control (n=4). Data are mean ± SD, statistical analysis was performed by two-sided t-test. […] Cells were co-treated with DMSO, UA and an inhibitor of PGC-1α (PGC-1αi) as indicated (n=4). One of two independent experiments are shown. Data are mean ± SD, statistical analysis was performed by two-sided t-test (p**<0.01; ***p <0.001; n.s. not significant).(FIG. 5Q) Urolithin A induces TSCM in human CD8+ cells: Schematic overview. PBMC were isolated from healthy donors, prior to T cell purification and in vitro stimulation via aCD3/aCD28 stimulation beads at the presence of UA or DMSO control. (FIG. 5R) Quantification of human TSCM (n=4). Representative data of one out of five donors with the same result are shown. (FIG. 5S) Quantification of TMRM^loCD8+ human cells 48 h after activation in the presence of UA or DMSO control (n=4). (FIG. 5T) TCF1 expression in human CD8 cells as assessed by flow cytometry (n=4). All data are mean ± SD; statistical analysis was performed by two-sided t-test (*p < 0.05; p**<0.01; p****0.0001).
# (FIG. 8B) qPCR analysis of selected Wnt target genes 24 h after stimulation (n=4). Data are mean ± SEM, statistical analysis was performed by two-sided t-test (* p<0.05, ** p<0.01, *** p<0.001). (FIG. 8C) CD8+ cells from PGAM5^-/- mice display an adequate mitophagy response upon UA treatment: Flow cytometry analysis of lysosome formation after six hours of in vitro stimulation via aCD3/aCD28 stimulation beads (n=4). (FIG. 8D) CD8+ cells from PGAM5^-/- mice display an adequate mitophagy response upon UA treatment: Mitotracker Red signal after 24 h in PGAM5^-/- CD8+ stimulated in vitro at the presence of UA or vehicle control. Congruent histograms are shown. Data are mean ± SD, statistical analysis was performed by two-sided t-test (* p<0.05, ** p<0.01, *** p<0.001). (FIG. 8E) Cytosolic fractionation Western blot of Pink1^-/- CD3+ cells 6 h after stimulation with plate-bound aCD3/aC28 antibodies in the presence of Urolithin A or DMSO control. […]
# NALM-6 leukemia cells = test: Killing of NALM-6 cells by CD19-CAR T cells; type: cell-based, human; conditions: 24 h co-culture
# CD19-CAR T cells = test: CD19-CAR T cell generation in presence of UA; type: cell-based, human
# muscle function = conditions: urolithin A-high diet, cited from earlier work
smiles,measurement,setting,value
O=c1oc2cc(O)ccc2c2ccc(O)cc12 [Urolithin A],mitochondrial content (Mitotracker Red),Pgam5^-/- CD8^+ T cells; 24 h,reduced mitochondrial content
same,PGC-1α expression,Pgam5^-/- CD8^+ T cells; 48 h,failed to enhance
same,TCF1,Pgam5^-/- CD8^+ T cells; 48 h,failed to upregulate
same,UA-dependent expansion of CD44-CD62L+Sca1hi TSCM cells,Pgam5^-/- CD8^+ T cells; 48 h,blocked the UA-dependent expansion
same,memory marker CD95,Pgam5^-/- CD8^+ T cells; 48 h,failed to upregulate
same,lysosome formation,Pgam5^-/- CD8^+ T cells; six hours,still enhanced lysosome formation
same,CD19 CAR-T cell mediated killing of NALM-6 leukemia cells,NALM-6 leukemia cells,did not have a negative impact
same,gene delivery into CD8+ cells,CD19-CAR T cells,did not impair gene delivery
same,markers of exhaustion,CD19-CAR T cells; UA supplementation,not affected
same,CAR expressing TSCM cells among CD8+ cells,"CD19-CAR T cells; three days post transduction, upon UA exposure",about 60%
same,recovery of muscle function,muscle function; mice with Duchenne muscular dystrophy,recovery of muscle function
same,muscle function,muscle function,superior muscle function
